From patent US11078197B2, “5-membered and bicyclic heterocyclic amides as inhibitors of rock” (BRISTOL-MYERS SQUIBB COMPANY, priority 2017, dated 2021)

target: ROCK2 (Homo sapiens (Human), UniProt O75116); assay: ROCK2 assay (peptide phosphorylation, LABCHIP 3000 Reader); type: biochemical; details: 5 μM ATP, 1.5 μM peptide substrate, dose-response
Experimental: After incubation, the reaction was terminated by the addition of EDTA and the phosphorylated and non-phosphorylated peptides separated using a LABCHIP®3000 Reader (Caliper Life Sciences). […] Compounds were tested in dose-response format, and the inhibition of kinase activity was calculated at each concentration of compound. […] Representative Examples were tested in the ROCK2 assay described above and found having ROCK2 inhibitory activity.

Chain of ROCK2 (O75116 whole entry, species assumed): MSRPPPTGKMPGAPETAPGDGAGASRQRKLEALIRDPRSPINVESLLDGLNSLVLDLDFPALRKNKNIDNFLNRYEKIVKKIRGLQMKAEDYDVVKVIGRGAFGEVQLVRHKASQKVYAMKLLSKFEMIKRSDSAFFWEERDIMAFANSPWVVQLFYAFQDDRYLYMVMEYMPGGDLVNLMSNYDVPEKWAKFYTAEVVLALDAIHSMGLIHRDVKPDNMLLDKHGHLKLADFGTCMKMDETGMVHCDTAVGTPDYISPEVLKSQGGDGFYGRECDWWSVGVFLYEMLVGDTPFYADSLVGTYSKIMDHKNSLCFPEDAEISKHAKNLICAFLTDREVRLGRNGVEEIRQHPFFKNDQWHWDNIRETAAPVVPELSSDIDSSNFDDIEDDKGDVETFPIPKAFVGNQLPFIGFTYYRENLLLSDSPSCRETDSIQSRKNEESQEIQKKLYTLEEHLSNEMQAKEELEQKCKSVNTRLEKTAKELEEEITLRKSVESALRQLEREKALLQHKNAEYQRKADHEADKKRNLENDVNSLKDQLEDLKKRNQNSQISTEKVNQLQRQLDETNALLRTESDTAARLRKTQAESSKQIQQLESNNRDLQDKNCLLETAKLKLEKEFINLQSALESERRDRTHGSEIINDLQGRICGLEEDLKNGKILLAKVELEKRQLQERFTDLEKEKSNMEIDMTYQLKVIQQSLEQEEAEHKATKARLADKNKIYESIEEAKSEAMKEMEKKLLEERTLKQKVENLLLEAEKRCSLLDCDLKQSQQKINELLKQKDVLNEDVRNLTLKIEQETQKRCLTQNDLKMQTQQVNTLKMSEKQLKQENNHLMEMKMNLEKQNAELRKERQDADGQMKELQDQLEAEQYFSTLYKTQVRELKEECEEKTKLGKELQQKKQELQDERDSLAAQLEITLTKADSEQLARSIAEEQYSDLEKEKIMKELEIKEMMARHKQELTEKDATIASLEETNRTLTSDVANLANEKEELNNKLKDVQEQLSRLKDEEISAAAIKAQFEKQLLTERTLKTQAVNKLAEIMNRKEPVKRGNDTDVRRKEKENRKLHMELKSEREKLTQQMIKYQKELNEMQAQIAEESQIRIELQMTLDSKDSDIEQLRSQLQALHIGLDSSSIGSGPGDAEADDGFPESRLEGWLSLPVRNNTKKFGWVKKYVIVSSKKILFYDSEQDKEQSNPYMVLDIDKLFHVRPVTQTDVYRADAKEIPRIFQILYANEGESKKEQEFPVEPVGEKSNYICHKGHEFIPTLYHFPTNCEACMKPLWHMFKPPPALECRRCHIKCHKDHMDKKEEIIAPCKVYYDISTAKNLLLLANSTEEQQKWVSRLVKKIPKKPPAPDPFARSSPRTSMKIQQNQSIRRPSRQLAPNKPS

Row | Compound | IC50 [µM]
1 | 2-cyclopropyl-4- {[(aR)-6-{4-[(1R)- 1-hydroxyethyl]-2,5- dioxoimidazolidin-1- yl}spiro[3.3]heptan- 2-yl]oxy}-1,3- thiazole-5- carboxamide [Example 109] | 0.33
2 | NC(=O)c1cc2sccc2nc1OC1CC2(CC(NC(=O)C3CC(=O)N(Cc4ccc(Cl)cc4)C3)C2)C1 (single isomer, unassigned) [Example 78, N-[6-({6-carbamoylthieno[3,2-b]pyridin-5-yl}oxy)spiro[3.3]heptan-2-yl]-1-[(4-chlorophenyl)methyl]-5-oxopyrrolidine-3-carboxamide] | 3.1
3 | NC(=O)c1cc2sccc2nc1OC1CC2(CC(NC(=O)C3CC(=O)N(Cc4ccc(Cl)cc4)C3)C2)C1 (single isomer, unassigned) [Example 80, N-[6-({6-carbamoylthieno[3,2-b]pyridin-5-yl}oxy)spiro[3.3]heptan-2-yl]-1-[(4-chlorophenyl)methyl]-5-oxopyrrolidine-3-carboxamide] | 2.34
4 | CC(C)CC1NC(=O)N([C@H]2C[C@@]3(C[C@H](Oc4nc(C5CC5)sc4C(N)=O)C3)C2)C1=O (single isomer, unassigned) [Example 110, 2-cyclopropyl-4-{[{aR)-6-[4-(2-methylpropyl)-2,5-dioxoimidazolidin-1-yl]spiro[3.3]heptan-2-yl]oxy}-1,3-thiazole-5-carboxamide] | 0.0122
5 | CC(C)CC1NC(=O)N([C@H]2C[C@@]3(C[C@H](Oc4nc(C5CC5)sc4C(N)=O)C3)C2)C1=O (single isomer, unassigned) [Example 111] | 0.106
6 | [H][C@]1(Oc2nc(C)sc2C(N)=O)C[C@]2(C[C@@H](NC(=O)c3cnn(-c4ccc(Cl)cc4)c3C)C2)C1 (stereo partly drawn) [Example 1, 4-(((aR)-6-(1-(4-Chlorophenyl)-5-methyl-1H-pyrazole-4-carboxamido)spiro[3.3]heptan-2-yl)oxy)-2-methylthiazole-5-carboxamide] | 0.0427
7 | [H][C@]1(Oc2nc(C3CC3)sc2C(N)=O)C[C@]2(C[C@@H](NC(=O)c3nc(C(F)(F)F)n4cc(-n5ccccc5=O)ccc34)C2)C1 (stereo partly drawn) [Example 3, 2-Cyclopropyl-4-(((aR)-6-(6-(2-oxopyridin-1(2H)-yl)-3-(trifluoromethyl)imidazo[1,5-a]pyridine-1-carboxamido)spiro[3.3]heptan-2-yl)oxy)thiazole-5-carboxamide] | 0.0688
8 | Cn1cc(C(N)=O)c(OC2CC3(CC(NC(=O)c4cnn5cc(OCCC(F)(F)F)ccc45)C3)C2)n1 [Example 4, N-((aR)-6-((4-Carbamoyl-1-methyl-1H-pyrazol-3-yl)oxy)spiro[3.3]heptan-2-yl)-6-(3,3,3-trifluoropropoxy)pyrazolo[1,5-a]pyridine-3-carboxamide] | 0.0201
9 | CC(C)(O)COc1ccc2c(C(=O)NC3CC4(C3)CC(Oc3nn(CC5CC5)cc3C(N)=O)C4)cnn2c1C1CC1 (centres unmarked) [Example 5] | 0.0526
10 | [H][C@]1(Oc2nn3ccccc3c2C(N)=O)C[C@]2(C[C@@H](NC(=O)c3cnn4c(C5CC5)c(OCC(C)(C)O)ccc34)C2)C1 (some centres unmarked) [Example 6] | 0.0256
11 | CC(C)(O)COc1ccc2c(C(=O)NC3CC4(C3)CC(Oc3nc5ncccc5cc3C(N)=O)C4)cnn2c1C1CC1 [Example 7, 2-(((aR)-6-(7-Cyclopropyl-6-(2-hydroxy-2-methylpropoxy)pyrazolo[1,5-a]pyridine-3-carboxamido)spiro[3.3]heptan-2-yl)oxy)-1,8-naphthyridine-3-carboxamide] | 0.0048
12 | CC(C)(O)COc1ccc2c(C(=O)NC3CC4(C3)CC(Oc3nc5c(cc3C(N)=O)CCCN5)C4)cnn2c1C1CC1 [Example 8, 2-(((aR)-6-(7-Cyclopropyl-6-(2-hydroxy-2-methylpropoxy)pyrazolo[1,5-a]pyridine-3-carboxamido)spiro[3.3]heptan-2-yl)oxy)-5,6,7,8-tetrahydro-1,8-naphthyridine-3-carboxamide] | 0.0054
13 | NC(=O)c1cc2sccc2nc1OC1CC2(CC(NC(=O)C3CCC(C(F)(F)F)CC3)C2)C1 (centres unmarked) [Example 9, 5-((6-(4-(Trifluoromethyl)cyclohexane-1-carboxamido)spiro[3.3]heptan-2-yl)oxy)thieno[3,2-b]pyridine-6-carboxamide] | 0.349
14 | CC(C)CC1NC(=O)N([C@H]2C[C@@]3(C[C@H](Oc4nc(C5CC5)sc4C(N)=O)C3)C2)C1=O (some centres unmarked) [Example 10] | 0.0274
15 | NC(=O)c1sc(C2CC2)nc1O[C@H]1CC2(C[C@H](NC(=O)c3cnn4cc(OCC(F)F)ccc34)C2)C1 (stereo partly drawn) [Example 11, 2-cyclopropyl-4-(((aR)-6-(6-(2,2-difluoroethoxy)pyrazolo[1,5-a]pyridine-3-carboxamido)spiro[3.3]heptan-2-yl)oxy)thiazole-5-carboxamide] | 0.0233
16 | CC(C)(O)COc1ccc2c(C(=O)NC3CC4(C3)CC(Oc3nc5c(cc3C(N)=O)COCC5)C4)cnn2c1 [Example 12, 6-(2-hydroxy-2-methylpropoxy)-N-[(aR)-6-({3-carbamoyl-5H,7H,8H-pyrano[4,3-b]pyridin-2-yl}oxy)spiro[3.3]heptan-2-yl]pyrazolo[1,5-a]pyridine-3-carboxamide] | 0.0401
17 | NC(=O)c1cc2c(nc1O[C@H]1C[C@]3(C1)C[C@H](N1C(=O)CN(Cc4ccccc4)CC1=O)C3)CCOC2 (some centres unmarked) [Example 13] | 0.576
18 | Cn1cc(C(N)=O)c(O[C@H]2C[C@@]3(C[C@H](NC(=O)c4cnn5c(C6CC6)c(OCC(C)(C)O)ccc45)C3)C2)n1 (stereo partly drawn) [Example 14, 3-({(aR)-6-[7-cyclopropyl-6-(2-hydroxy-2-methylpropoxy)pyrazolo [1,5-a]pyridine-3-amido]spiro[3.3]heptan-2-yl}oxy)-1-methyl-1H-pyrazole-4-carboxamide] | 0.0141
19 | CC(C)(O)COc1ccc2c(C(=O)N[C@H]3C[C@]4(C3)C[C@H](Oc3nn(-c5ccccc5)cc3C(N)=O)C4)cnn2c1C1CC1 (stereo partly drawn) [Example 15, 3-({(aR)-6-[7-cyclopropyl-6-(2-hydroxy-2-methylpropoxy)pyrazolo [1,5-a]pyridine-3-amido]spiro[3.3]heptan-2-yl}oxy)-1-phenyl-1H-pyrazole-4-carboxamide] | 0.0125
20 | CC(C)(O)COc1ccc2c(C(=O)N[C@H]3C[C@]4(C3)C[C@H](Oc3nc(-c5ccccc5)sc3C(N)=O)C4)cnn2c1 (stereo partly drawn) [Example 17, 4-({(aR)-6-[6-(2-hydroxy-2-methylpropoxy)pyrazolo [1,5-a]pyridine-3-amido]spiro[3.3]heptan-2-yl}oxy)-2-phenyl-1,3-thiazole-5-carboxamide] | 0.0185
21 | CC(C)(O)COc1ccc2c(C(=O)N[C@H]3C[C@]4(C3)C[C@H](Oc3nc(-c5ccccc5)sc3C(N)=O)C4)cnn2c1C1CC1 (stereo partly drawn) [Example 18, 4-({(aR)-6-[7-cyclopropyl-6-(2-hydroxy-2-methylpropoxy)pyrazolo [1,5-a]pyridine-3-amido]spiro[3.3]heptan-2-yl}oxy)-2-phenyl-1,3-thiazole-5-carboxamide] | 0.0134
22 | CCn1cc(C(N)=O)c(O[C@H]2C[C@@]3(C[C@H](NC(=O)c4cnn5c(C6CC6)c(OCC(C)(C)O)ccc45)C3)C2)n1 (stereo partly drawn) [Example 19, 3-({(aR)-6-[7-cyclopropyl-6-(2-hydroxy-2-methylpropoxy)pyrazolo [1,5-a]pyridine-3-amido]spiro[3.3]heptan-2-yl}oxy)-1-ethyl-1H-pyrazole-4-carboxamide] | 0.0105
23 | CC(C)(O)COc1ccc2c(C(=O)NC3CC4(C3)CC(Oc3nn(CC5CCNCC5)cc3C(N)=O)C4)cnn2c1C1CC1 [Example 20, 3-({(aR)-6-[7-cyclopropyl-6-(2-hydroxy-2-methylpropoxy)pyrazolo [1,5-a]pyridine-3-amido]spiro[3.3]heptan-2-yl}oxy)-1-[(piperidin-4-yl)methyl]-1H-pyrazole-4-carboxamide] | 0.0068
24 | Cc1nc(O[C@H]2C[C@@]3(C[C@H](NC(=O)c4cnn5cc(OCC(C)(C)O)ccc45)C3)C2)c(C(N)=O)s1 (stereo partly drawn) [Example 21, 4-({(aR)-6-[6-(2-hydroxy-2-methylpropoxy)pyrazolo [1,5-a]pyridine-3-amido]spiro[3.3]heptan-2-yl}oxy)-2-methyl-1,3-thiazole-5-carboxamide] | 0.0189
25 | Cc1nc(O[C@H]2C[C@@]3(C[C@H](NC(=O)c4cnn5c(C6CC6)c(OCC(C)(C)O)ccc45)C3)C2)c(C(N)=O)s1 (stereo partly drawn) [Example 22, 4-({(aR)-6-[7-cyclopropyl-6-(2-hydroxy-2-methylpropoxy)pyrazolo [1,5-a]pyridine-3-amido]spiro[3.3]heptan-2-yl}oxy)-2-methyl-1,3-thiazole-5-carboxamide] | 0.007
26 | COCCn1cc(C(N)=O)c(O[C@H]2C[C@@]3(C[C@H](NC(=O)c4cnn5c(C6CC6)c(OCC(C)(C)O)ccc45)C3)C2)n1 (stereo partly drawn) [Example 23, 3-({(aR)-6-[7-cyclopropyl-6-(2-hydroxy-2-methylpropoxy)pyrazolo [1,5-a]pyridine-3-amido]spiro[3.3]heptan-2-yl}oxy)-1-(2-methoxyethyl)-1H-pyrazole-4-carboxamide] | 0.0777
27 | COCCn1ncc(C(N)=O)c1O[C@H]1C[C@@]2(C[C@H](NC(=O)c3cnn4c(C5CC5)c(OCC(C)(C)O)ccc34)C2)C1 (stereo partly drawn) [Example 24, 5-({(aR)-6-[7-cyclopropyl-6-(2-hydroxy-2-methylpropoxy)pyrazolo [1,5-a]pyridine-3-amido]spiro[3.3]heptan-2-yl}oxy)-1-(2-methoxyethyl)-1H-pyrazole-4-carboxamide] | 1.48
28 | Cc1nc(O[C@H]2C[C@@]3(C[C@H](NC(=O)c4nn(C(F)F)c5cc(OCC(C)(C)O)ccc45)C3)C2)c(C(N)=O)s1 (stereo partly drawn) [Example 25, N-{(aR)-6-[(5-carbamoyl-2-methyl-1,3-thiazol-4-yl)oxy]spiro[3.3]heptan-2-yl}-1-(difluoromethyl)-6-(2-hydroxy-2-methylpropoxy)-1H-indazole-3-carboxamide] | 0.0064
29 | CC(C)(O)COc1ccc2c(C(=O)N[C@H]3C[C@]4(C3)C[C@H](Oc3[nH]ncc3C(N)=O)C4)cnn2c1C1CC1 (stereo partly drawn) [Example 26, 5-({(aR)-6-[7-cyclopropyl-6-(2-hydroxy-2-methylpropoxy)pyrazolo [1,5-a]pyridine-3-amido]spiro[3.3]heptan-2-yl}oxy)-1H-pyrazole-4-carboxamide] | 0.0254
